Experimental findings from patent publication US20090318561A1 (MUTUAL PHARMACEUTICAL COMPANY, INC., priority 2008, published 2009) are described below.

The structures appear in SMILES notation. Several values for one entry are separate records, joined by “and”; a condition that tells them apart may be missing. Equal entries are not always repeated. Where two headings read alike, the source gives them in different places.

The subject of series [1] is CYP1A2 mRNA. Description: Quantitative RT-PCR analysis of CYP1A2 mRNA content in primary human hepatocytes. The following applies: 3-MC 2 μM; for Relative Fold mRNA Content: single sample.
Procedure: (§1) After isolation, hepatocytes were re-suspended in Dulbecco's modified Eagle medium (DMEM; Gibco BRL, Grand Island, N.Y.) containing 5% fetal bovine serum (FBS; Gibco BRL), insulin and dexamethasone (Gibco BRL) and added to plates coated with a collagen type I substratum (BD Biosciences, Bedford, Mass.). After attachment, serum-free William's E medium containing dexamethasone, insulin, transferrin, selenium (ITS^+, BD Biosciences) was added. Cultures of hepatocytes were maintained for 36 to 48 hours prior to initiating experiments.
(§2) Dosing solutions were prepared fresh daily in cell culture medium such that the final dimethyl sulfoxide (DMSO) concentration was 0.1%. At the conclusion of the treatment period, cells were incubated with substrates and harvested for total RNA isolations.
(§3) Cells in 24-well format were washed with one volume (0.5 mL) of Hank's Balanced Salt Solution and lysed by addition of 350 μL of ABI Nucleic Acid Lysis Solution (Applied Biosystems, Foster City, Calif.) and frozen at −70° C. Lysates were thawed and total RNA was isolated from each sample using an ABI 6100 Prepstation. Isolated RNA was analyzed using a Nanoprop® spectrophotometer (Wilmington, Del.) to estimate the total RNA concentrations, and RNA was stored at −70° C. For reverse transcription (RT), approximately 200 ng of pooled total RNA was converted to cDNA following the manufacturer's procedure for the High Capacity cDNA Archive Kit (Applied Biosystems, Foster City, Calif.).
(§4) CYP1A2 cDNA from human hepatocyte cultures was analyzed from each RT reaction using gene-specific TAQMAN® primer/probe sets (Applied Biosystems). Reactions with the specific primer/probes for beta-actin were analyzed as an endogenous control for CYP450 expression. Amplifications were performed on an ABI 7500 Real-Time PCR System (Applied Biosystems) in relative quantification mode for 40 amplification cycles using standard conditions for TaqMan®-based assays. Threshold cycle (CT) determinations were performed by the ABI 7500 system software for both CYP450 and endogenous control gene □-actin. Relative-fold mRNA content was determined for each treatment group relative to the endogenous control gene expression and 0.1% DMSO vehicle control for each sample using the relationship:
2^−ΔΔC^T=relative-fold mRNA content.
(§5) Data (activities and mRNA) were analyzed for mean and standard error. […] Initially, data were examined for homoscedasticity and normality (of residuals from the ANOVA model fitting) using Levene's and Shapiro-Wilk tests, respectively.
(§6) Negative control cultures were treated with media alone (in the presence or absence of 0.1% DMSO).
The subject of series [2] is CYP1A2 mRNA. The following applies: human, 3 days.
Procedure: as §1, §2, §3, §4
2^−ΔΔC^T=relative-fold mRNA content.
as §5, §6

On to `Cc1ccc2cc3c(ccc4ccccc43)c3c2c1CC3` [3-MC, 3-methylcholanthrene], for which, in series [1] (lot Hu485), the “Mean Relative Fold mRNA Content” value was 396; the “Percent of Adjusted Positive Control” value is given as 100.00%; the “Relative Fold mRNA Content” value is 361 and 445 and 380. In series [1] (lot Hu503), the “Mean Relative Fold mRNA Content” value worked out at 161; the “Percent of Positive Control” value worked out at 100.00%; the “Relative Fold mRNA Content” value is 167 and 137 and 180. Also, in series [1] (lot Hu4021), the “Mean Relative Fold mRNA Content” value is listed as 71.9; the “Percent of Positive Control” value is 100.00%; the “Relative Fold mRNA Content” value was 68.7 and 69.1 and 77.8.

Take `CC[C@]1(O)C[C@@H]2CN(CCc3c([nH]c4ccccc34)[C@@](C(=O)OC)(c3cc4c(cc3OC)N(C)[C@H]3[C@@](O)(C(=O)OC)[C@H](OC(C)=O)[C@]5(CC)C=CCN6CC[C@]43[C@@H]65)C2)C1` [vinblastine]: the “Percent of Adjusted Positive Control” value was found to be 1.23% in series [2] (1 nM), 1.18% in series [2] (10 nM) and 0.70% in series [2] (100 nM).
